Results: patent US20030008331A1, “Directed evolution biosensors” (priority 1998, published 2003)

Tested on: cells which do not express the β2-adrenergic receptor (wild type)
Assay: melanophore pigment dispersion assay, wild type cells
Type: cell-based, frog
Conditions: wild type melanophores, two successive tests

CC(C)(C)NCC(O)c1ccc(O)c(CO)c1 (stereo not shown) [salbutamol]
response of cells to challenge: did not respond
